These results are taken from patent US10316017B2, “COT modulators and methods of use thereof” (Gilead Sciences, Inc., priority 2015, dated 2019).

Like-named read-outs stand apart in the source and are kept apart here.

Test [1] has as its target T1, human Cot catalytic domain (30-397 amino acids) (Homo sapiens, UniProt P41279).
T1 construct: Purified recombinant human Cot catalytic domain (30-397 amino acids) was purchased from Cama Biosciences; purchased Cama Biosciences (so in the source)
In words: High Throughput Cot Biochemical Assay (KinEASE TR-FRET). The conditions noted are these: read-out: IC50 HTRF. In short, it runs like this: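 Phosphorylation of 1 μM XL665-STK3 peptide by 5 nM Cot catalytic domain was measured by time-resolved FRET using a europium […] antibody. ATP was 400 μM; buffer was 10 mM MOPS pH 7.0 with Mg2+ and DTT.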
In general terms: Time-resolved FRET reads energy transfer from a long-lived donor to a nearby acceptor.

The test system of test [2] is TNFα production in LPS-stimulated human monocytes. In words: Cot Monocyte TNFα Cell Based Assay. The note with it: Homo sapiens, Monocyte, read-out: EC50 TNF. In short, it runs like this:
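Percent-of-control values derive from TR-FRET ratios of TNFα in spun-down media, referenced to unstimulated and LPS-stimulated wells. Exposure: 1 h compound preincubation, then 50 pg/ml LPS for 4 h, both at 37 °C, with 0.5% final DMSO.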

[3] abbreviates: Cot KinEASE TR-FRET (HTRF) biochemical assay, 400 μM ATP.
The mark [4] stands for this setting: TNFα in LPS-stimulated human monocytes.
The mark [5] stands for this setting: Cot KinEASE TR-FRET, 400 μM ATP.
The mark [6] stands for this setting: LPS-stimulated human monocytes, TNFα TR-FRET.
Where [7] appears, read: Cot biochemical HTRF (KinEASE TR-FRET) assay.

T1 sequence (P41279 30-397): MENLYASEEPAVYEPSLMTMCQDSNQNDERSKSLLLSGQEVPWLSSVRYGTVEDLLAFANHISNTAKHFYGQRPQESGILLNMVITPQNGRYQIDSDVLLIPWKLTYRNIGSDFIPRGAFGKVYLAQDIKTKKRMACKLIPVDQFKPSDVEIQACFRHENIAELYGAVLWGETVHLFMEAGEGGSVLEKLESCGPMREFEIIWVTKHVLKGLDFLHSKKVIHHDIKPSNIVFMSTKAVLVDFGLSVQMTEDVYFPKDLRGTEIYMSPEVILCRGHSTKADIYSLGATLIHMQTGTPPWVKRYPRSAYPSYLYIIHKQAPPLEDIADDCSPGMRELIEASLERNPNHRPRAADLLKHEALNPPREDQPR

What is called IC50 is the midpoint of a concentration-inhibition curve. Usually EC50 stands for the concentration needed to bring the measured effect to its halfway point. For `CC(C)(C)CNc1c(C#N)cnc2c(C#N)cc(N[C@@H](c3cccc(-c4ncco4)c3)c3cn(C4CC4)nn3)cc12` [Example 82, (S)-6-(((1-cyclopropyl-1H-1,2,3-triazol-4-yl)(3-(oxazol-2-yl)phenyl)methyl)amino)-4-(neopentylamino) quinoline-3,8-dicarbonitrile], in test [1] (setting [3]), the concentration for half-maximal inhibition (IC50) was 1 nM. Besides, the EC50 in test [2] (setting [4]) stood at 183 nM.

Take `[2H][C@](Nc1cc(Cl)c2ncc(C#N)c(NCC(C)(C)C)c2c1)(c1ccccc1)c1cn(C2CC2)nn1` [Example 312, (S)-8-chloro-6-(((1-cyclopropyl-1H-1,2,3-triazol-4-yl)(phenyl)methyl-d)amino)-4-(neopentylamino)quinoline-3-carbonitrile]: in test [1] (setting [3]), the IC50 was 5 nM. Moreover, in test [2] (setting [4]), the EC50 worked out at 177 nM.

With `[2H][C@](Nc1cc(-c2cnc(C)nc2)c2ncc(C#N)c(NCC(C)(C)C)c2c1)(c1ccc(F)cc1)c1cn(C2CC2)nn1` [Compound 62], the half-inhibitory concentration (IC50) in test [1] (setting [3]) was determined as 29 nM. The EC50 in test [2] (setting [4]) came to 447 nM.

Turning to `CC(C)n1cc([C@@H](Nc2cc(Cl)c3ncc(C#N)c(N[C@@H](CC#N)c4ccccc4)c3c2)c2ccc(F)cc2)nn1` [Example 304, 8-chloro-4-(((S)-2-cyano-1-phenylethyl)amino)-6-(((S)-(4-fluorophenyl)(1-isopropyl-1H-1,2,3-triazol-4-yl)methyl)amino)quinoline-3-carbonitrile], in test [1] (setting [3]), the IC50 was 864 nM. Moreover, the EC50 in test [2] (setting [4]) is over 10000 nM.

As for `[2H][C@](Nc1cc(F)c2ncc(C#N)c(N[C@H](CCC#N)c3ccccc3)c2c1)(c1cccc(C#N)c1)c1cn(C2CC2)nn1` [Example 164, 4-(((R)-3-cyano-1-phenylpropyl)amino)-6-(((S)-(3-cyanophenyl)(1-cyclopropyl-1H-1,2,3-triazol-4-yl)methyl-d)amino)-8-fluoroquinoline-3-carbonitrile], the IC50 in test [1] (setting [3]) came out at 1 nM. For the same compound, the EC50 in test [2] (setting [4]) was 15 nM.

On to `CC(C)(C)CNc1c(C#N)cnc2c(Cl)cc(N[C@@H](c3cccc(-n4cncn4)c3)c3cn(C4CC4)nn3)cc12` [Example 1031, (S)-6-(((3-(1H-1,2,4-triazol-1-yl)phenyl)(1-cyclopropyl-1H-1,2,3-triazol-4-yl)methyl)amino)-8-chloro-4-(neopentylamino)quinoline-3-carbonitrile], for which, in test [1] (setting [5]), the 50% inhibitory concentration (IC50) was 1 nM. The EC50 in test [2] (setting [6]) was determined as 118 nM.

In the case of `[2H]c1c([C@@]([2H])(Nc2cc(Cl)c3ncc(C#N)c(NCC(C)(C)C)c3c2)c2c(F)cccc2Cl)nnn1C1(C)CC1` [Example 1046, (S)-8-chloro-6-(((2-chloro-6-fluorophenyl)(1-(1-methylcyclopropyl)-1H-1,2,3-triazol-4-yl-5-d)methyl-d)amino)-4-(neopentylamino)quinoline-3-carbonitrile], in test [1] (setting [5]), the IC50 was found to be 142 nM. The concentration for a half-maximal effect (EC50) in test [2] (setting [6]) is at least 1000 nM.

Turning to `Cn1cc(Nc2c(C#N)cnc3c(Cl)cc(N[C@@H](c4ccccc4)c4c[nH]nn4)cc23)ccc1=O` [Example 482, (S)-8-chloro-4-((1-methyl-6-oxo-1,6-dihydropyridin-3-yl)amino)-6-((phenyl (1H-1,2,3-triazol-4-yl)methyl)amino)quinoline-3-carbonitrile], the IC50 in test [1] (setting [7]) came to 332 nM. The EC50 in test [2] (setting [4]) was over 10000 nM.

As to `CC(C)n1cc([C@@H](Nc2cc(Cl)c3ncc(C#N)c(Nc4ccc(F)c(Cl)c4)c3c2)c2cccc(N3CCC3=O)c2)nn1` [Example 551, (S)-8-chloro-4-((3-chloro-4-fluorophenyl)amino)-6-(((1-isopropyl-1H-1,2,3-triazol-4-yl)(3-(2-oxoazetidin-1-yl)phenyl)methyl)amino)quinoline-3-carbonitrile], the IC50 in test [1] (setting [7]) came out at 5 nM. In addition, the EC50 in test [2] (setting [4]) worked out at 475 nM.

Regarding `CN(C)C(=O)CN1CCC(n2cc([C@@H](Nc3cc(Cl)c4ncc(C#N)c(Nc5ccc(F)c(Cl)c5)c4c3)c3ccc(F)cc3)nn2)CC1` [Example 824, (S)-2-(4-(4-(((8-chloro-4-((3-chloro-4-fluorophenyl)amino)-3-cyanoquinolin-6-yl)amino)(4-fluorophenyl)methyl)-1H-1,2,3-triazol-1-yl)piperidin-1-yl)-N,N-dimethylacetamide], the 50% inhibitory concentration (IC50) in test [1] (setting [7]) came out at 58 nM. For the same compound, the EC50 in test [2] (setting [4]) stood at 450 nM.

As to `[2H][C@](Nc1cc(Cl)c2ncc(C#N)c(NC3(CC)CCC3)c2c1)(c1ccc(F)cc1)c1cn(C2CC2)nn1` [Example 218, (S)-8-chloro-6-(((1-cyclopropyl-1H-1,2,3-triazol-4-yl)(4-fluorophenyl)methyl-d)amino)-4-((1-ethylcyclobutyl)amino)quinoline-3-carbonitrile], the IC50 in test [1] (setting [3]) came out at 432 nM. Moreover, in test [2] (setting [4]), the EC50 was determined as 5390 nM.

For `[2H][C@](Nc1cc(Cl)c2ncc(C#N)c(Nc3ccccc3OC(F)(F)F)c2c1)(c1ccc(F)cc1)c1cn(C2CC2)nn1` [Example 126, (S)-8-chloro-6-(((1-cyclopropyl-1H-1,2,3-triazol-4-yl)(4-fluorophenyl)methyl-d)amino)-4-((2-(trifluoromethoxy)phenyl)amino)quinoline-3-carbonitrile], the IC50 in test [1] (setting [3]) worked out at 397 nM. The EC50 in test [2] (setting [4]) was over 10000 nM.

As for `[2H][C@](Nc1cc(C(=O)N(C)C)c2ncc(C#N)c(NCC(C)(C)C)c2c1)(c1ccc(F)cc1)c1cn(C2CC2)nn1` [Example 138, (S)-3-cyano-6-(((1-cyclopropyl-1H-1,2,3-triazol-4-yl) (4-fluorophenyl)methyl-d)amino)-N,N-dimethyl-4-(neopentylamino) quinoline-8-carboxamide], in test [1] (setting [3]), the IC50 was determined as 139 nM. In addition, the EC50 in test [2] (setting [4]) came to 1360 nM.

As for `CC1(Nc2c(C#N)cnc3c(Cl)cc(N[C@@H](c4ccccc4)c4cn(C5CCN(C(C)(C)C)CC5)nn4)cc23)CCCCCC1` [Example 615, (S)-6-(((1-(1-(tert-butyl)piperidin-4-yl)-1H-1,2,3-4-yl)(phenyl)methyl)amino)-8-chloro-4-((1-methylcycloheptyl)amino) quinoline-3-carbonitrile], the IC50 in test [1] (setting [7]) is 141 nM. In test [2] (setting [4]), the EC50 came out at 719 nM.

`Cc1ccccc1[C@H](Nc1cc(Cl)c2ncc(C#N)c(NCC(C)(C)C)c2c1)c1cn(C2(C(F)F)CC2)nn1` [Example 1060, (S)-8-chloro-6-(((1-(1-(difluoromethyl)cyclopropyl)-1H-1,2,3-triazol-4-yl)(o-tolyl)methyl)amino)-4-(neopentylamino)quinoline-3-carbonitrile]: the 50% inhibitory concentration (IC50) in test [1] (setting [5]) is 33 nM. Also, the EC50 in test [2] (setting [6]) worked out at 311 nM.

With `N#Cc1cnc2c(Cl)cc(NC(c3ccc(F)cc3)c3cscn3)cc2c1Nc1ccc(F)c(Cl)c1` (centres unmarked) [Example 806, 8-chloro-4-((3-chloro-4-fluorophenyl)amino)-6-(((4-fluorophenyl)(thiazol-4-yl)methyl)amino)quinoline-3-carbonitrile], the IC50 in test [1] (setting [7]) worked out at 850 nM. Besides, the EC50 in test [2] (setting [4]) is over 50000 nM.

In the case of `CC(C)(C)Cn1cc([C@@H](Nc2cc(Cl)c3ncc(C#N)c(Nc4cnc(F)c(F)c4)c3c2)c2ccc(F)cc2)nn1` [Example 411, (S)-8-chloro-4-((5,6-difluoropyridin-3-yl)amino)-6-(((4-fluorophenyl)(1-neopentyl-1H-1,2,3-triazol-4-yl)methyl)amino)quinoline-3-carbonitrile], the IC50 in test [1] (setting [7]) amounted to 111 nM. In addition, the EC50 in test [2] (setting [4]) was 3410 nM.

In the case of `[2H][C@](Nc1cc(Cl)c2ncc(C#N)c(NC(C)(C)C(C)C)c2c1)(c1ccc(F)cc1)c1cn(C2CC2)nn1` [Example 213, (S)-8-chloro-6-(((1-cyclopropyl-1H-1,2,3-triazol-4-yl)(4-fluorophenyl)methyl-d)amino)-4-((2,3-dimethylbutan-2-yl)amino)quinoline-3-carbonitrile], the IC50 in test [1] (setting [3]) came out at 24 nM. For the same compound, the EC50 in test [2] (setting [4]) was determined as 407 nM.

Take `CN(C)C(=O)c1cccc([C@H](Nc2cc(Cl)c3ncc(C#N)c(Nc4ccc(Cl)c(Cl)c4F)c3c2)c2cn(C3CCN(C(C)(C)C)CC3)nn2)c1` [Example 572, (S)-3-((1-(1-(tert-butyl)piperidin-4-yl)-1H-1,2,3-triazol-4-yl)((8-chloro-3-cyano-4-((3,4-dichloro-2-fluorophenyl)amino)quinolin-6-yl)amino)methyl)-N,N-dimethylbenzamide]: in test [1] (setting [7]), the IC50 was 2 nM. In test [2] (setting [4]), the EC50 worked out at 111 nM.

In the case of `CC(C)(C)N1CCC(n2cc([C@@H](Nc3cc(Cl)c4ncc(C#N)c(Nc5ccc(F)c(Cl)c5)c4c3)c3ccccc3CO)nn2)CC1` [Example 722, (S)-6-(((1-(1-(tert-butyl)piperidin-4-yl)-1H-1,2,3-triazol-4-yl)(2-(hydroxymethyl)phenyl)methyl)amino)-8-chloro-4-((3-chloro-4-fluorophenyl)amino)quinoline-3-carbonitrile], in test [1] (setting [7]), the IC50 came out at 4 nM. Also, the EC50 in test [2] (setting [4]) is 76 nM.

In the case of `[2H][C@](Nc1cc(Cl)c2ncc(C#N)c(N[C@H](CC)c3ccccc3)c2c1)(c1cccc(C#N)c1)c1c[nH]nn1` [Compound 15], the 50% inhibitory concentration (IC50) in test [1] (setting [3]) amounted to 4 nM. In addition, the EC50 in test [2] (setting [4]) is 134 nM.

As for `CC(C)(C)CNc1c(C#N)cnc2c(C#N)cc(N[C@@H](c3ccc(F)cc3)c3cn(C4(C(N)=O)CCC4)nn3)cc12` [Example 985, (S)-1-(4-(((3,8-dicyano-4-(neopentylamino)quinolin-6-yl)amino)(4-fluorophenyl)methyl)-1H-1,2,3-triazol-1-yl)cyclobutane-1-carboxamide], the IC50 in test [1] (setting [5]) worked out at 4 nM. Also, the EC50 in test [2] (setting [6]) came out at 119 nM.
